In ChEMBL document CHEMBL1201862, “PubChem BioAssay data set” (2004):
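Cells were grown in 96-well plates and exposed to each compound for 48 hours at five concentrations; endpoints were interpolated linearly between bracketing concentrations, or set to the highest concentration if not reached. GI50 = concentration required for 50% inhibition of growth.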 Activity calls are given as the source filed them. Rule as the data show it: active = GI50 up to about 1.1 µM and inactive = higher. Where a SMILES comes first, the peptide text is derived from it. The star is where a group is joined. Fmoc = O=C(OCC1c2ccccc2-c2ccccc21)*; OtBu = CC(C)(C)O*

Tests used:
Assay in all cases: NCI tumour cell line growth inhibition, 48 h
LOX IMVI = system: LOX IMVI
K562 = system: K562
SK-MEL-5 = system: SK-MEL-5
ACHN = system: ACHN
SNB-75 = system: SNB-75
CAKI-1 = system: CAKI-1
SK-MEL-28 = system: SK-MEL-28
A549 = system: A549
UACC-62 = system: UACC-62
NCI/ADR-RES = system: NCI/ADR-RES
SN12C = system: SN12C
OVCAR-4 = system: OVCAR-4
SF-295 = system: SF-295
HCT-15 = system: HCT-15
OVCAR-3 = system: OVCAR-3
NCI-H522 = system: NCI-H522
Hs-578T = system: Hs-578T
IGROV-1 = system: IGROV-1
COLO 205 = system: COLO 205
PC-3 = system: PC-3

Compound | GI50 (LOX IMVI) | GI50 (K562) | GI50 (SK-MEL-5) | GI50 (ACHN) | GI50 (SNB-75) | GI50 (CAKI-1) | GI50 (SK-MEL-28) | GI50 (A549) | GI50 (UACC-62) | GI50 (NCI/ADR-RES) | GI50 (SN12C) | GI50 (OVCAR-4) | GI50 (SF-295) | GI50 (HCT-15) [µM] | GI50 (OVCAR-3) | GI50 (NCI-H522) | GI50 (Hs-578T) | GI50 (IGROV-1) | GI50 (COLO 205) | GI50 (PC-3)
Oc1cc(-c2cccc(Cl)c2)nc2ncccc12 | 0.133 µM (active) | 0.0208 µM (active) | 0.0387 µM (active) | 3.27 µM (inactive) | 0.971 µM (active) | 0.101 µM (active) | 0.183 µM (active) | 0.126 µM (active) | 0.0577 µM (active) | 0.221 µM (active) | 0.141 µM (active) | > 66.7 µM (inactive) | 0.0533 µM (active) | 0.0489 | 0.0466 µM (active) | 0.0474 µM (active) | 0.084 µM (active) | 0.0813 µM (active) | 0.0782 µM (active) | 0.0248 µM (active)
CC(C)/C(Cl)=N/OC(=O)Nc1ccc(Cl)c(Cl)c1 | 1.64 µM (inactive) | 0.989 µM (active) | 11.6 µM (inactive) | 1.99 µM (inactive) | 19.7 µM (inactive) | 1.75 µM (inactive) | 2.01 µM (inactive) | 21.4 µM (inactive) | 13.6 µM (inactive) | 16.7 µM (inactive) | 1.91 µM (inactive) | 9.31 µM (inactive) | 17.7 µM (inactive) | 2.33 | 2.58 µM (inactive) | 1.58 µM (inactive) | 23.7 µM (inactive) | 11.7 µM (inactive) | 1.83 µM (inactive) | 16.6 µM (inactive)
Cc1cc(C(=O)CSC(=S)SC(C)(C)C)ccc1Cl | 19.9 µM (inactive) | 31.2 µM (inactive) | 17.8 µM (inactive) | 25 µM (inactive) | 18.2 µM (inactive) | 34.2 µM (inactive) | 19.8 µM (inactive) | 20.9 µM (inactive) | 16.1 µM (inactive) | 19.8 µM (inactive) | 18.2 µM (inactive) | 31 µM (inactive) | 17.7 µM (inactive) | 22.3 | 16.4 µM (inactive) | 14.7 µM (inactive) | 25.5 µM (inactive) | 33.1 µM (inactive) | 18.4 µM (inactive) | 29.8 µM (inactive)
COC(=O)c1cc2cc3c(c(O)c2c(=O)o1)O[C@@]1(Oc2c(O)c4c(c(O)c2[C@H]1OC1CC(OC)C(O)C(C)O1)C(=O)C=C(OC)C4=O)[C@H](O)C3 (stereo not given in full) | 0.492 µM (active) | 0.841 µM (active) | 0.966 µM (active) | 0.855 µM (active) | 0.652 µM (active) | 0.448 µM (active) | 0.659 µM (active) | 1.05 µM (active) | 0.55 µM (active) | 4.62 µM (inactive) | 1.3 µM (inactive) | 0.604 µM (active) | 0.724 µM (active) | 0.908 | 1.45 µM (inactive) | 2.09 µM (inactive) | 1.17 µM (inactive) | 0.705 µM (active) | 1.51 µM (inactive) | 1.36 µM (inactive)
Nc1nc(SCc2ccccc2)c2ncn(Cc3ccccc3)c2n1 | > 100 µM (inactive) | > 87.3 µM (inactive) | > 63 µM (inactive) | > 100 µM (inactive) | 35.8 µM (inactive) | 30.1 µM (inactive) | > 100 µM (inactive) | > 96.2 µM (inactive) | > 83 µM (inactive) | > 100 µM (inactive) | > 100 µM (inactive) | > 100 µM (inactive) | > 100 µM (inactive) | > 81.3 | > 67.5 µM (inactive) | > 60.4 µM (inactive) | > 100 µM (inactive) | > 100 µM (inactive) | > 100 µM (inactive) | > 100 µM (inactive)
CC(C)(CO)NC1=C(Cl)C(=O)c2c(O)ccc(O)c2C1=O | 0.45 µM (active) | 0.104 µM (active) | 1.09 µM (active) | 1.7 µM (inactive) | 1.31 µM (inactive) | 1.96 µM (inactive) | 1.89 µM (inactive) | 1.86 µM (inactive) | 1.35 µM (inactive) | 1.88 µM (inactive) | 1.56 µM (inactive) | 1.57 µM (inactive) | 1.7 µM (inactive) | 0.557 | 1.55 µM (inactive) | 0.316 µM (active) | 0.743 µM (active) | 1.58 µM (inactive) | 1.22 µM (inactive) | 1.87 µM (inactive)
COc1cc(/C=C(\C)[N+](=O)[O-])cc(OC)c1 | 3.08 µM (inactive) | 2.69 µM (inactive) | 16 µM (inactive) | 16.4 µM (inactive) | 16.7 µM (inactive) | 14.5 µM (inactive) | 18.4 µM (inactive) | 28.3 µM (inactive) | 14.6 µM (inactive) | 20.2 µM (inactive) | 17.1 µM (inactive) | 18.1 µM (inactive) | 25.8 µM (inactive) | 12.6 | 17.8 µM (inactive) | 1.87 µM (inactive) | 26.9 µM (inactive) | 6.46 µM (inactive) | 8.05 µM (inactive) | 20.1 µM (inactive)
CCOC(=O)C1(C(=O)OCC)C[C@@H](C)[C@@H](O)C1 | > 100 µM (inactive) | > 100 µM (inactive) | > 100 µM (inactive) | > 100 µM (inactive) | 75.7 µM (inactive) | > 100 µM (inactive) | > 100 µM (inactive) | > 100 µM (inactive) | > 100 µM (inactive) | > 100 µM (inactive) | > 100 µM (inactive) | > 100 µM (inactive) | > 100 µM (inactive) | > 100 | > 100 µM (inactive) | > 100 µM (inactive) | > 100 µM (inactive) | > 100 µM (inactive) | > 100 µM (inactive) | > 100 µM (inactive)
O=C(O)c1ccc(Nc2nc3ccccc3nc2-c2cccs2)cc1 | 35.1 µM (inactive) | 45.5 µM (inactive) | > 100 µM (inactive) | 98.9 µM (inactive) | 66.1 µM (inactive) | 63.5 µM (inactive) | > 100 µM (inactive) | 44.2 µM (inactive) | 65.5 µM (inactive) | 39.1 µM (inactive) | > 100 µM (inactive) | 41.8 µM (inactive) | > 100 µM (inactive) | 68.7 | > 100 µM (inactive) | 91.4 µM (inactive) | 50.7 µM (inactive) | 73.5 µM (inactive) | > 100 µM (inactive) | > 100 µM (inactive)
CN(CCc1ccccn1)c1ccc2c(c1)Cc1ccccc1-2 | 16.3 µM (inactive) | 9.31 µM (inactive) | 12.6 µM (inactive) | 22.5 µM (inactive) | 17.9 µM (inactive) | 61.4 µM (inactive) | 29.2 µM (inactive) | 13.6 µM (inactive) | 10.6 µM (inactive) | 26.9 µM (inactive) | 33.8 µM (inactive) | 22.5 µM (inactive) | 12.1 µM (inactive) | 3.43 | 26.1 µM (inactive) | 8.69 µM (inactive) | 4.54 µM (inactive) | 16.1 µM (inactive) | 15.7 µM (inactive) | 2.92 µM (inactive)
CC(C)C(NC(=O)OCC1c2ccccc2-c2ccccc21)C(=O)NC(CCC(=O)OC(C)(C)C)C(=O)OC(C)(C)C (stereo not given) (Fmoc-Val-Glu(OtBu)-OtBu; configuration not given here) | 8.38 µM (inactive) | > 20.5 µM (inactive) | 7.69 µM (inactive) | > 100 µM (inactive) | > 46.9 µM (inactive) | > 100 µM (inactive) | > 100 µM (inactive) | 60 µM (inactive) | > 76.9 µM (inactive) | 27 µM (inactive) | > 31.6 µM (inactive) | 12.8 µM (inactive) | 17.2 µM (inactive) | > 100 | > 100 µM (inactive) | > 45.1 µM (inactive) | > 100 µM (inactive) | > 100 µM (inactive) | > 31.6 µM (inactive) | 3.99 µM (inactive)
COc1ccc(CNc2nc(NCc3ccc(OC)c(OC)c3)nc(NC3CCCCC3)n2)cc1 | 5.33 µM (inactive) | 1.24 µM (inactive) | 0.716 µM (active) | 7.94 µM (inactive) | 3.38 µM (inactive) | 3.17 µM (inactive) | > 100 µM (inactive) | 5.46 µM (inactive) | 2.3 µM (inactive) | 2.55 µM (inactive) | 6.18 µM (inactive) | 9.06 µM (inactive) | 2.04 µM (inactive) | 0.731 | 5.38 µM (inactive) | 1.69 µM (inactive) | 2.49 µM (inactive) | 4.49 µM (inactive) | 2.34 µM (inactive) | 3.77 µM (inactive)
Cn1cnc([N+](=O)[O-])c1SCC(=O)O | > 100 µM (inactive) | > 100 µM (inactive) | > 100 µM (inactive) | > 100 µM (inactive) | > 100 µM (inactive) | > 100 µM (inactive) | > 100 µM (inactive) | > 100 µM (inactive) | > 100 µM (inactive) | > 100 µM (inactive) | > 100 µM (inactive) | > 100 µM (inactive) | > 100 µM (inactive) | > 100 | > 100 µM (inactive) | > 100 µM (inactive) | > 100 µM (inactive) | > 100 µM (inactive) | > 100 µM (inactive) | > 100 µM (inactive)
COc1cc(C2C3=C(COC3=O)Oc3cc4c(cc32)OCO4)cc(OC)c1O (stereo not given) | < 0.0112 µM (active) | < 0.01 µM (active) | < 0.01 µM (active) | < 0.0119 µM (active) | < 0.01 µM (active) | < 0.01 µM (active) | < 0.01 µM (active) | < 0.0141 µM (active) | < 0.01 µM (active) | < 0.01 µM (active) | 0.0364 µM (active) | 8.24 µM (inactive) | < 0.01 µM (active) | 0.0126 | 0.0127 µM (active) | < 0.01 µM (active) | 0.0119 µM (active) | < 0.0121 µM (active) | < 0.0133 µM (active) | < 0.01 µM (active)
